The values below come from patent publication US20250340551A1, “SMALL MOLECULE MODULATORS OF STAT6” (Gilead Sciences, Inc., priority 2024, published 2025).

As a reminder, the Emax is the greatest response seen or fitted, relative to the assay's reference. For orientation: pEC50 means the negative decadic logarithm of the EC50, by convention in mol/L. The low end stands for a high EC50, the high end for a low EC50.

Each structure is given as a SMILES string. pEC50: −log10 of the molar value.

The first assay deals with Eotaxin-3 (CCL26) release in human whole blood stimulated with IL-4. Kind of assay: Human whole blood eotaxin-3 assay (IL-4 stimulated, Eotaxin-3 release). It counts as cell-based. The note with it: Homo sapiens, 48 h. The procedure, abridged: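 Lithium-heparin blood preincubated 2 h at 37° C with 4-fold compound dilutions (0.5% DMSO, triplicates), then stimulated with 400 pM recombinant human IL-4 for 48 h. Eotaxin-3 in plasma supernatant measured by MSD immunoassay.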
For the compound `[2H]C([2H])([2H])N(C(=O)c1cnc(C2=CCN(Cc3cc4c(-c5ccc(N)nc5C#N)ccnc4n3C)CC2)nc1)C([2H])([2H])[2H]` [Example 1z15, 2-(1-((4-(6-amino-2-cyanopyridin-3-yl)-1-methyl-1H-pyrrolo[2,3-b]pyridin-2-yl)methyl)-1,2,3,6-tetrahydropyridin-4-yl)-N,N-bis(methyl-d3)pyrimidine-5-carboxamide], the Emax was < 20%.
The same measure, in the same setting: the result for `CN(C)C(=O)c1ncc(C2=CCN(Cc3cc4c(-c5ccc(N)nn5)ccnc4n3C)CC2)cn1` [Example 1z21, 5-(1-((4-(6-aminopyridazin-3-yl)-1-methyl-1H-pyrrolo[2,3-b]pyridin-2-yl)methyl)-1,2,3,6-tetrahydropyridin-4-yl)-N,N-dimethylpyrimidine-2-carboxamide] reads 20 to 30%; that for `CN(C)C(=O)c1ccc(C2CCN(Cc3cc4c(-c5ccc(N)nn5)ccnc4n3C)CC2)cc1` [Example 1z22, 4-(1-((4-(6-aminopyridazin-3-yl)-1-methyl-1H-pyrrolo[2,3-b]pyridin-2-yl)methyl)piperidin-4-yl)-N,N-dimethylbenzamide], < 20%.

The same assay, now with this note: Homo sapiens, Hec50, 48 h.
Compound `Cc1cc(C(=O)N(C)C)cc(F)c1C1=CCN(Cc2cc3c(-c4ccc(N)nn4)ccnc3n2C)CC1` [Example 1z14, 4-(1-((4-(6-aminopyridazin-3-yl)-1-methyl-1H-pyrrolo[2,3-b]pyridin-2-yl)methyl)-1,2,3,6-tetrahydropyridin-4-yl)-3-fluoro-N,N,5-trimethylbenzamide] showed a pEC50 of 7.42.
Same read-out and setting: the result for `CN(C)C(=O)c1cc(F)c(C2=CCN(Cc3cc4c(-c5ccc(N)nc5)ccnc4n3C)CC2)c(F)c1` [Example 1z16, 4-(1-((4-(6-aminopyridin-3-yl)-1-methyl-1H-pyrrolo[2,3-b]pyridin-2-yl)methyl)-1,2,3,6-tetrahydropyridin-4-yl)-3,5-difluoro-N,N-dimethylbenzamide] reads 6.47.
Regarding `CN(C)C(=O)c1cc(F)c(C2=CCN(Cc3cc4c(-c5ccc(N)cn5)ccnc4n3C)CC2)c(F)c1` [Example 1z17, 4-(1-((4-(5-aminopyridin-2-yl)-1-methyl-1H-pyrrolo[2,3-b]pyridin-2-yl)methyl)-1,2,3,6-tetrahydropyridin-4-yl)-3,5-difluoro-N,N-dimethylbenzamide], the pEC50 is 6.43.
Same read-out and setting: the result for `CN(C)C(=O)c1cc(F)c(C2=CCN(Cc3cc4c(-c5ccc(N)nn5)ccnc4n3C)CC2)c(F)c1` [Example 1z18, 4-(1-((4-(6-aminopyridazin-3-yl)-1-methyl-1H-pyrrolo[2,3-b]pyridin-2-yl)methyl)-1,2,3,6-tetrahydropyridin-4-yl)-3,5-difluoro-N,N-dimethylbenzamide] reads 6.69; that for `[2H]C([2H])([2H])N(C(=O)c1cc(C)c(C2=CCN(Cc3cc4c(-c5ccc(N)nn5)ccnc4n3C)CC2)c(F)c1)C([2H])([2H])[2H]` [Example 1z20, 4-(1-((4-(6-aminopyridazin-3-yl)-1-methyl-1H-pyrrolo[2,3-b]pyridin-2-yl)methyl)-1,2,3,6-tetrahydropyridin-4-yl)-3-fluoro-5-methyl-N,N-bis(methyl-d3)benzamide], 7.27; that for `CN(C)C(=O)c1ccc(C2=CCN(Cc3cc4c(-c5ccc(N)nc5)ccnc4n3C)CC2)c(C2CC2)c1` [Example 1z23, 4-(1-((4-(6-aminopyridin-3-yl)-1-methyl-1H-pyrrolo[2,3-b]pyridin-2-yl)methyl)-1,2,3,6-tetrahydropyridin-4-yl)-3-cyclopropyl-N,N-dimethylbenzamide], 6.07.
`Cc1cc(C(=O)N(C)C)cc(F)c1C1=CCN(C(C)c2cc3c(-c4ccc(N)nc4)ccnc3n2C)CC1` (stereo not drawn) [Example 1z28, 4-(1-(1-(4-(6-aminopyridin-3-yl)-1-methyl-1H-pyrrolo[2,3-b]pyridin-2-yl)ethyl)-1,2,3,6-tetrahydropyridin-4-yl)-3-fluoro-N,N,5-trimethylbenzamide]: the pEC50 was 7.67.
As for `Cc1cc(C(=O)N(C)C)cc(F)c1C1=CCN([C@@H](C)c2cc3c(-c4ccc(N)nc4)ccnc3n2C)CC1` [Example 1z29, (S)-4-(1-(1-(4-(6-aminopyridin-3-yl)-1-methyl-1H-pyrrolo[2,3-b]pyridin-2-yl)ethyl)-1,2,3,6-tetrahydropyridin-4-yl)-3-fluoro-N,N,5-trimethylbenzamide], the pEC50 is 5.97.
Same read-out and setting: with `Cc1cc(C(=O)N(C)C)cc(F)c1C1=CCN([C@H](C)c2cc3c(-c4ccc(N)nc4)ccnc3n2C)CC1` [Example 1z30, (R)-4-(1-(1-(4-(6-aminopyridin-3-yl)-1-methyl-1H-pyrrolo[2,3-b]pyridin-2-yl)ethyl)-1,2,3,6-tetrahydropyridin-4-yl)-3-fluoro-N,N,5-trimethylbenzamide] the figure was 7.99; with `Cc1cc(C(=O)N(C)C)cc(F)c1C1=CCN(C(C)c2cc3c(-c4ccc(N)cn4)ccnc3n2C)CC1` (stereo not drawn) [Example 1z31, 4-(1-(1-(4-(5-aminopyridin-2-yl)-1-methyl-1H-pyrrolo[2,3-b]pyridin-2-yl)ethyl)-1,2,3,6-tetrahydropyridin-4-yl)-3-fluoro-N,N,5-trimethylbenzamide], 7.20; with `Cc1cc(C(=O)N(C)C)cc(F)c1C1=CCN([C@@H](C)c2cc3c(-c4ccc(N)cn4)ccnc3n2C)CC1` [Example 1z32, (S)-4-(1-(1-(4-(5-aminopyridin-2-yl)-1-methyl-1H-pyrrolo[2,3-b]pyridin-2-yl)ethyl)-1,2,3,6-tetrahydropyridin-4-yl)-3-fluoro-N,N,5-trimethylbenzamide], 7.42.
In turn, `Cc1cc(C(=O)N(C)C)cc(F)c1C1=CCN([C@H](C)c2cc3c(-c4ccc(N)cn4)ccnc3n2C)CC1` [Example 1z33, (R)-4-(1-(1-(4-(5-aminopyridin-2-yl)-1-methyl-1H-pyrrolo[2,3-b]pyridin-2-yl)ethyl)-1,2,3,6-tetrahydropyridin-4-yl)-3-fluoro-N,N,5-trimethylbenzamide] gave a pEC50 of 6.37.
Same read-out and setting: the result for `[2H]C([2H])([2H])N(C(=O)c1cc(C)c(C2=CCN(Cc3cc4c(-c5ccc(NC)nn5)ccnc4n3C)CC2)c(F)c1)C([2H])([2H])[2H]` [Example 1z34, 3-fluoro-5-methyl-N,N-bis(methyl-d3)-4-(1-((1-methyl-4-(6-(methylamino)pyridazin-3-yl)-1H-pyrrolo[2,3-b]pyridin-2-yl)methyl)-1,2,3,6-tetrahydropyridin-4-yl)benzamide] reads 6.88.
`CN(C)C(=O)c1cc(F)c(C2=CCN(Cc3cc4c(-c5ccc(N)nc5)ccnc4n3C)CC2)c(C2CC2)c1` [Example 1z35, 4-(1-((4-(6-aminopyridin-3-yl)-1-methyl-1H-pyrrolo[2,3-b]pyridin-2-yl)methyl)-1,2,3,6-tetrahydropyridin-4-yl)-3-cyclopropyl-5-fluoro-N,N-dimethylbenzamide]: the negative logarithm of the EC50 (pEC50) is 7.09.
Regarding `CNc1ccc(-c2ccnc3c2cc(C(C)N2CC=C(c4c(C)cc(C(=O)N(C)C)cc4F)CC2)n3C)cn1` (stereo not drawn) [Example 1z36, 3-fluoro-N,N,5-trimethyl-4-(1-(1-(1-methyl-4-(6-(methylamino)pyridin-3-yl)-1H-pyrrolo[2,3-b]pyridin-2-yl)ethyl)-1,2,3,6-tetrahydropyridin-4-yl)benzamide], the pEC50 was 7.41.
